Read-outs that look alike come from different tables or passages of the source.
Experiments:
[1] = system: mice; assay: In vivo toxicity of NAALADase inhibitors (5-day survival); details: 1 to 500 mg/kg
Text: The mice were subsequently observed two times per day for 5 consecutive days. The survival rate at each dose level is provided below in TABLE II.

[2] = system: cortical cell cultures; assay: In vitro ischemia assay (KCN/2-DG) in cortical cell cultures; format: cell-based, rat
[3] = system: SHRSP rats; assay: Cortical injury following MCAO in SHRSP rats; format: in vivo, rat; details: for Cortical Injury Volume / Cortical Injury Volume (% injury): ± S.E.M., n = 10
Protocol: Rectal temperature is maintained at 37.0±0.50° C. throughout the surgical procedure using a heating lamp.

[4] = system: sciatic nerve; assay: Myelin formation following sciatic nerve cryolesion; format: in vivo, mouse
Protocol: Cryolesion of the mouse sciatic nerve was performed according to Koenig et al. , Science, Vol. 268, pp. 1500-1503 (June 1995). In brief, each mouse was anesthetized and its sciatic nerve was exposed in the upper thigh and cryolesioned using a copper cryode (diameter=0.5 mm) that was dipped in liquid nitrogen and repeatedly applied to the upper part of the nerve. The extent of the lesion was approximately 1 mm.
Both right and left sciatic nerves of each mouse were lesioned; right-side nerves were treated with silicone implant strips containing vehicle alone while left-side nerves were treated with silicone implants containing 2-(phosphonomethyl)pentanedioic acid. Fifteen days after surgery, the mice were sacrificed and their sciatic nerve segments were collected and processed for light microscopy and TEM analysis. Randomly chosen fields 2-3 mm distal to the lesion were qualitatively analyzed by light microscopy using 1-micrometer-thick toluidine blue stained cross sections and photographic images were captured.

[5] = system: spinal cord organotypic cultures; assay: ALS model: ChAT activity of spinal cord organotypic cultures with THA; format: cell-based, rat
Protocol: Organotypic cultures were prepared from lumbar spinal cord of 8 day old rats, as described by Rothstein et al., J. Neurochem., Vol. 65, No. 2 (1995), and Rothstein et al., Proc. Natl. Acad. Sci. USA, Vol. 90, pp. 6591-6595 (July 1993). In brief, lumbar spinal cords were removed and sliced into […]-thick-dorsal-ventral sections, and five slices were placed on Millipore CM semipermeable 30-mm-diameter membrane inserts. The inserts were placed on 1 ml of culture medium in 35-mm-diameter culture wells. Culture medium consisted of 50% minimal essential medium and phosphate-free HEPES (25 mM), 25% heat-inactivated horse serum, and 25 Hanks' balanced salt solution (GIBCO) supplemented with D-glucose (25.6 mg/ml) and glutamine (2 mM), at a final pH of 7.2. Antibiotic and antifungal agents were not used. Cultures were incubated at 37° C. in 5% CO2 containing humidified environment (Forma Scientific). Culture medium, along with any added pharmacological agents, was changed twice weekly.
Drugs were incubated for an additional 13 to 20 days with the 100 μM THA. At the end of this period, cultures were collected assayed for ChAT activity as described below.
To determine choline acetyltransferase (CHAT) activity, the spinal cord tissues in each dish (five slices) were pooled and frozen (-75° C.) until assay. CHAT activity was measured radiometrically by described methods using [^3 H]acetyl-CoA (Amersham; Fonnum, 1975). Protein content of tissue homogenate was determined by a Coomassi Protein Assay kit (Pierce, Rockford, Ill.).

[6] = system: LNCaP cells
Protocol: On the 7th day, the cells are pulsed with 3H-thymidine for 4 hours, harvested and measured for radioactivity. Values represent means +/- SEM of 6 separate cell wells for each treatment. All experiments are performed at least twice.
LNCaP cells are obtained from Dr. William Nelson at the Johns Hopkins School of Medicine in Baltimore, Md. DU145 cells are obtained from American Type Culture Collection (Rockville, Md.). Cells are grown in RPMI-1640 media supplemented with 5% heat-inactivated fetal calf serum, 2 mM-glutamine, 100 units/ml penicillin, and 100 μg/ml streptomycin (Paragon) in a humidified incubator at 37° C. in a 5% CO2 /95% air atmosphere.
The cells are suspended at 1×10^3 cells/ml in RPMI-1640 media and seeded into 24-well plates at 500 μl per well. […] 5 ml UltimaGold (Packard) scintillation cocktail is added and radioactivity is quantitated using a Beckman LS6001 scintillation counter.

[7] = Rattus norvegicus, read-out: % Toxicity
[8] = 10 mg/kg then 2 mg/kg/hr for 1 hour
[9] = 100 mg/kg then 20 mg/kg/hr for one hour

Structure (SMILES): O=C(O)CCC(CP(=O)(O)O)C(=O)O (centres unmarked) [Compound 3, 2-(phosphonomethyl)pentanedioic acid]
- toxicological effect (in words) [1]: non-toxic to mice
- ischemic toxicity (in words) ([2]; 100 pM to 1 μM): toxicity decreased as the concentration of 2-(phosphonomethyl)pentanedioic acid increased
- activity at 0.0001 µM [2, 7]: 66.6 ± 4.38%
- activity at 0.001 µM [2, 7]: 42.3 ± 9.34%
- activity at 0.01 µM [2, 7]: 33.1 ± 9.62%
- activity at 0.1 µM [2, 7]: 30.2 ± 9.43%
- activity at 1 µM [2, 7]: 8.56 ± 8.22%
- Cortical Protection [3, 8]: 27 % protection
- Cortical Injury Volume [3, 8]: 135.00 ± 32.18 mm^3
- Cortical Injury Volume (% injury) [3, 8]: 29.14 ± 7.68 % injury
- Cortical Protection [3, 9]: 65 % protection
- Cortical Injury Volume [3, 9]: 65.23 ± 32.18 mm^3
- Cortical Injury Volume (% injury) [3, 9]: 13.98 ± 6.64 % injury
- # of myelinated lamellae ([4]; ave. + SEM, vehicle 13.77 ± 0.09, p < 0.005): 16.53 ± 0.65
- % increase of myelinated lamellae over vehicle ([4]; p < 0.005): 20%
- ratio of # of myelinated axons (drug/vehicle) ([4]; silicone implant, approx. 2.5 μg/day, 15 days): 1.5
- increase in number of myelinated axons ([4]; vs vehicle, 3 mm distal to cryolesion): 1.5 fold
- increase in myelin thickness ([4]; vs vehicle, 3 mm distal to cryolesion, p<0.005): 20%
- protection against THA-induced toxicity (in words) ([5]; 1 nM to 10 μM, THA 100 μM, 14 days): dose-dependent protection against THA-induced toxicity with maximal effects at 1 μM
- protection from THA toxicity (in words) ([5]; 100 nM - 10 μM with THA): significantly protected the cultures from THA toxicity
- ChAT Activity ([5]; 2-(phosphonomethyl)pentanedioic acid alone): 108 ± 18.4 % of Control
- ChAT Activity ([5]; with THA): 121 ± 18.8 % of Control
- 3H-Thymidine Incorporation ([6]; 10 pM): 3078 ± 1006 dpm/well
- 3H-Thymidine Incorporation ([6]; 100 pM): 2062 ± 595 dpm/well
- 3H-Thymidine Incorporation ([6]; 1 nM): 1001 ± 52 dpm/well
- 3H-Thymidine Incorporation ([6]; 10 nM): 664 ± 366 dpm/well
